Data on 37 molecules can be found in patent US5189043A, “Isoquinolone derivatives, their production and use” (Takeda Chemical Industries, Ltd., priority 1989, dated 1993).

Molecules are shown by their SMILES.

One test has as its target T1, HMG-CoA reductase of rat's liver microsome (Rattus norvegicus, UniProt P51639).
T1 construct: from tissue; host or cells: liver microsomes of male Sprague-Dawley rats fed 5% cholestyramine diet for 5 days
T1 sequence (P51639 1-887): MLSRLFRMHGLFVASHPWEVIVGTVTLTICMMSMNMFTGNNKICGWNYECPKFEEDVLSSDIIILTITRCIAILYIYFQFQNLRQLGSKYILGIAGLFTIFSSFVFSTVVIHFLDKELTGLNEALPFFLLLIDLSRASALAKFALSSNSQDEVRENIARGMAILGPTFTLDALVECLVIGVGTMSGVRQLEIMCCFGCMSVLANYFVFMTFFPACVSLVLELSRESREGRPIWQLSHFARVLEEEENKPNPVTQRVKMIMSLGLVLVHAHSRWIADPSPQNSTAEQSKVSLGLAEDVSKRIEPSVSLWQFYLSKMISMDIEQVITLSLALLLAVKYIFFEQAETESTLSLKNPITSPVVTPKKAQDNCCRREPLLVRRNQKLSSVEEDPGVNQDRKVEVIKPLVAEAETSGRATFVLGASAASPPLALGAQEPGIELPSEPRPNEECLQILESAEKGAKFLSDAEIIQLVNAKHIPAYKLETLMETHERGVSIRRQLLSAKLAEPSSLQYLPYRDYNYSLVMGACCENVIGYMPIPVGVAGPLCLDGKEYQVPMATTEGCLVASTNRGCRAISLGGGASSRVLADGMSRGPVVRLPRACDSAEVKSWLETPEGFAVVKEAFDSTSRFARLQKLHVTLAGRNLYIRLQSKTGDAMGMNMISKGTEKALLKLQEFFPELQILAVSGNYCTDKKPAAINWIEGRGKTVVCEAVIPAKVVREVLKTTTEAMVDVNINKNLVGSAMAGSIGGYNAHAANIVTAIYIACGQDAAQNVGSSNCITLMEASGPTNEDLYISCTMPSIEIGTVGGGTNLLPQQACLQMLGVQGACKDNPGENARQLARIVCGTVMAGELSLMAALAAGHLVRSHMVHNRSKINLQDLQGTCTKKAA
Put plainly: Inhibitory action for HMG-CoA reductase of rat's liver microsome. Format: biochemical, male Sprague-Dawley rats. The following applies: 0.5 h; at 10-^6 M; rat liver microsome (cholestyramine-fed), d,l-[3-^14 C]-HMG-CoA 0.5 mM, NADPH 20 mM, 37° C. 30 minutes. The protocol:
Inhibitory action for HMG-CoA reductase of rat's liver microsome
5% cholestyramine diet was fed to male Sprague-Dawley rats (300-400 g of body weight) for 5 days. Activity for HMG-CoA reductase of liver microsome was measured by a variant of the method of Shapiro et al [Biochem. Biophys. Acta 370, 36(1974)]. In this method, the enzyme activity is determined by measuring the formation of ^14 C-mevalonate from a substrate [3^14 C]-HMG-CoA in the presence of NADPH. ^14 C-Mevalonate is converted into its lactone which can be isolated by silica gel thin layer chromatography developing with benzene: acetone (50:50).
In order to measure inhibitory action for HMG-CoA reductase, test compound was dissolved in dimethyl sulfoxide and the solution was diluted with a buffer solution (100 mM phosphate buffer, 20 mM EDTA.2Na, […] dithioethritol).
The resulting mixture was incubated with microsome (120 μg protein) at 30° C. for 15 minutes, and further incubated at 37° C. for 30 minutes after addition of d,l-[3-^14 C]-HMG-CoA (0.5 mM, 5000 dpm/nmol) and NADPH (20 mM).
As for `COc1cc(F)ccc1-c1c(/C=C/[C@@H](O)C[C@@H](O)CC(=O)O)c2ccccc2c(=O)n1C(C)C` (relative stereo) [Example 1-2, Sodium [3R*,5S*(E)]-7-[1,2-dihydro-3-(4-fluoro-2-methoxyphenyl-2-(1-methylethyl)-1-oxo-4-isoquinolinyl]-3,5-dihydroxy-6-heptenoate], the inhibition at 1 µM came out at 92%.

In turn, `CC(C)n1c(-c2ccc(F)cc2)c(/C=C/[C@@H](O)C[C@@H](O)CC(=O)O)c2ccccc2c1=O` (relative stereo) [Example 2-2, Sodium [3R*,5S*(E)]-7-[1,2-dihydro-3-(4-fluorophenyl)-2-(1-methylethyl)-1-oxo-4-isoquinolinyl]-3,5-dihydroxy-6-heptenoate] showed an inhibition at 1 µM of 91.2%. Same read-out and setting: the value for `Cc1cc(F)ccc1-c1c(/C=C/[C@@H](O)C[C@@H](O)CC(=O)O)c2ccccc2c(=O)n1C(C)C` (relative stereo) [Example 5-2] was 90.4%; that for `CCCn1c(-c2ccc(F)cc2C)c(/C=C/[C@@H](O)C[C@@H](O)CC(=O)O)c2ccccc2c1=O` (relative stereo) [Example 10-2] was 90.4%. Still for that read-out and setting: the value for `CCCn1c(-c2ccc(F)cc2F)c(/C=C/[C@@H](O)C[C@@H](O)CC(=O)O)c2ccccc2c1=O` (relative stereo) [Example 11-2] was 90.9%; that for `COC(=O)C[C@H](O)C[C@H](O)/C=C/c1c(-c2ccc(F)cc2)n(CCc2ccccc2)c(=O)c2ccccc12` (relative stereo) [Example 13-1] was 89.6%; that for `O=C(O)C[C@H](O)C[C@H](O)/C=C/c1c(-c2ccc(F)cc2)n(CCc2ccccc2)c(=O)c2ccccc12` (relative stereo) [Example 13-2] was 95.1%. The molecule `CCOC(=O)C[C@H](O)C[C@H](O)/C=C/c1c(-c2ccc(F)cc2)n(C)c(=O)c2ccccc12` (relative stereo) [Example 14-1] came in with an inhibition at 1 µM of 91.1%. Turning to `Cn1c(-c2ccc(F)cc2)c(/C=C/[C@@H](O)C[C@@H](O)CC(=O)O)c2ccccc2c1=O` (relative stereo) [Example 14-2], the inhibition at 1 µM is 94%. On the same count and under the same terms, next, `CCn1c(-c2ccc(F)cc2)c(/C=C/[C@@H](O)C[C@@H](O)CC(=O)OC)c2ccccc2c1=O` (relative stereo) [Example 15-1]: 94.2%; `CCn1c(-c2ccc(F)cc2)c(/C=C/[C@@H](O)C[C@@H](O)CC(=O)O)c2ccccc2c1=O` (relative stereo) [Example 15-2]: 96.1%; `CCCn1c(-c2ccc(F)cc2)c(/C=C/[C@@H](O)C[C@@H](O)CC(=O)OCC)c2ccccc2c1=O` (relative stereo) [Example 16-1]: 94.2%.

As for `CCCn1c(-c2ccc(F)cc2)c(/C=C/[C@@H](O)C[C@@H](O)CC(=O)O)c2ccccc2c1=O` (relative stereo) [Example 16-2], at 1 µM the inhibition was 96.2%. For `CCCCn1c(-c2ccc(F)cc2)c(/C=C/[C@@H](O)C[C@@H](O)CC(=O)OC)c2ccccc2c1=O` (relative stereo) [Example 17-1], 1 µM produced 93.4% inhibition. Same read-out and setting: next, `CCCCn1c(-c2ccc(F)cc2)c(/C=C/[C@@H](O)C[C@@H](O)CC(=O)O)c2ccccc2c1=O` (relative stereo) [Example 17-2]: 95.8%.

In the case of `CCCCCn1c(-c2ccc(F)cc2)c(/C=C/[C@@H](O)C[C@@H](O)CC(=O)OC)c2ccccc2c1=O` (relative stereo) [Example 18-1], testing at 1 µM gave an inhibition of 90.7%. On the same count and under the same terms, next, `CCCCCn1c(-c2ccc(F)cc2)c(/C=C/[C@@H](O)C[C@@H](O)CC(=O)O)c2ccccc2c1=O` (relative stereo) [Example 18-2]: 96.5%; `CCCCCCCn1c(-c2ccc(F)cc2)c(/C=C/[C@@H](O)C[C@@H](O)CC(=O)O)c2ccccc2c1=O` (relative stereo) [Example 19-2]: 88%. Molecule `COC(=O)C[C@H](O)C[C@H](O)/C=C/c1c(-c2ccc(F)cc2)n(CC(C)C)c(=O)c2ccccc12` (relative stereo) [Example 21-1] displayed an inhibition at 1 µM of 91.3%. Turning to `CC(C)Cn1c(-c2ccc(F)cc2)c(/C=C/[C@@H](O)C[C@@H](O)CC(=O)O)c2ccccc2c1=O` (relative stereo) [Example 21-2], at 1 µM the inhibition was 95%. For the molecule `O=C(O)C[C@H](O)C[C@H](O)/C=C/c1c(-c2ccc(F)cc2)n(Cc2ccccc2)c(=O)c2ccccc12` (relative stereo) [Example 24-2], at 1 µM the inhibition was 89.6%. On to `O=C(O)C[C@H](O)C[C@H](O)/C=C/c1c(-c2ccc(F)cc2)n(CCCc2ccccc2)c(=O)c2ccccc12` (relative stereo) [Example 32-2], for which the inhibition at 1 µM was 89.6%. The molecule `O=C(O)C[C@H](O)C[C@H](O)/C=C/c1c(-c2ccc(F)cc2)n(CCc2ccc(Cl)cc2)c(=O)c2ccccc12` (relative stereo) [Example 33-2] registered an inhibition at 1 µM of 95.7%. On the same count and under the same terms, the value for `O=C(O)C[C@H](O)C[C@H](O)/C=C/c1c(-c2ccc(F)cc2)n(CCc2ccc(F)cc2)c(=O)c2ccccc12` (relative stereo) [Example 35-2] was 96.9%; that for `Cc1ccc(CCn2c(-c3ccc(F)cc3)c(/C=C/[C@@H](O)C[C@@H](O)CC(=O)O)c3ccccc3c2=O)cc1` (relative stereo) [Example 36-2] was 93.2%; that for `COc1ccc(CCn2c(-c3ccc(F)cc3)c(/C=C/[C@@H](O)C[C@@H](O)CC(=O)O)c3ccccc3c2=O)cc1` (relative stereo) [Example 37-2] was 96.2%. Still for that read-out and setting: next, `COc1ccccc1CCn1c(-c2ccc(F)cc2)c(/C=C/[C@@H](O)C[C@@H](O)CC(=O)O)c2ccccc2c1=O` (relative stereo) [Example 38-2]: 95.9%; `O=C(O)C[C@H](O)C[C@H](O)/C=C/c1c(-c2ccc(F)cc2)n(CCc2cccc(F)c2)c(=O)c2ccccc12` (relative stereo) [Example 39-2]: 91.7%. On the same count and under the same terms, next, `O=C(O)C[C@H](O)C[C@H](O)/C=C/c1c(-c2ccc(F)cc2)n(CCc2ccccc2F)c(=O)c2ccccc12` (relative stereo) [Example 40-2]: 92.6%. As to `COCCn1c(-c2ccc(F)cc2)c(/C=C/[C@@H](O)C[C@@H](O)CC(=O)O)c2ccccc2c1=O` (relative stereo) [Example 41-2], the inhibition at 1 µM was found to be 88.2%.

`CSCCn1c(-c2ccc(F)cc2)c(/C=C/[C@@H](O)C[C@@H](O)CC(=O)O)c2ccccc2c1=O` (relative stereo) [Example 42-2] displayed an inhibition at 1 µM of 94.1%.

`C=CCn1c(-c2ccc(F)cc2)c(/C=C/[C@@H](O)C[C@@H](O)CC(=O)O)c2ccccc2c1=O` (relative stereo) [Example 43-2] returned an inhibition at 1 µM of 90.6%. As to `CC(C)n1c(-c2ccc(F)cc2)c(/C=C/[C@@H](O)C[C@@H](O)CC(=O)O)c2c(c1=O)CCCC2` (relative stereo) [Example 47-2], at 1 µM the inhibition was 93.3%.

For `CCCn1c(-c2ccc(F)cc2)c(/C=C/[C@@H](O)C[C@@H](O)CC(=O)O)c2c(c1=O)CCCC2` (relative stereo) [Example 48-2], the inhibition at 1 µM stood at 96.6%.

`CCCn1c(-c2ccc(F)cc2)c(/C=C/[C@@H](O)C[C@@H](O)CC(=O)O)c2ccccc2c1=O` [Example 49-2, Sodium [3R, 5S(E)]-7-[1,2-dihydro-3-(4-fluorophenyl)-2-propyl-1-oxo-4-isoquinolinyl]-3,5-dihydroxy-6-heptenoate] came in with an inhibition at 1 µM of 97.1%. Same read-out and setting: next, `CCCn1c(-c2ccc(F)cc2)c(/C=C/[C@@H]2C[C@@H](O)CC(=O)O2)c2ccccc2c1=O` [Example 49-3]: 92.5%.

Staying with this test, now noted: at 10-^6 M; rat liver microsome (cholestyramine-fed), d,l-[3-^14 C]-HMG-CoA 0.5 mM, NADPH 20 mM, 37° C. 30 minutes.
Regarding `CC[C@H](C)C(=O)O[C@H]1C[C@@H](C)C=C2C=C[C@H](C)[C@H](CC[C@@H]3C[C@@H](O)CC(=O)O3)[C@H]21` [Mevinolin, reference compound], the “Inhibition (%)” value is listed as 75.5%.
